Laboratory results from patent US4618612A (Medosan Industrie Biochimiche Riunite S.p.A., priority 1983, dated 1986).
Where two headings read alike, the source gives them in different places.

Legend:
[1] = tested on: rat platelet-rich plasma (ADP-induced platelet aggregation); assay: Anti-platelet aggregation activity in vitro (Born's method), rat platelet-rich plasma, ADP-induced; assay type: cell-based
Procedure: Preparations (A), (B), (C), (D), (E) and (F) were administered "in vivo" orally and/or parenterally in 0.5% carboxymethylcellulose suspensions in physiological saline at neutral pH. When tested "in vitro", they were finely dispersed in neutral pH physiological saline.
This was studied "in vitro" following Born's method (Born G. W. R., Nature, 194, 937 (1962)) and inducing platelet aggregation with ADP.
Platelet-rich plasma was obtained by centrifugation for 10 minutes at 2,000 rpm of 9 parts rat blood to 1 part 3.13% sodium citrate solution. In performing the aggregation test, 0.2 ml of platelet rich plasm was mixed with a 0.9% NaCl solution to which the test substance was added to a final volume of 0.6 ml; the resulting mixture was incubated at 27° C. for 3 minutes. After inducement with ADP, aggregation was measured continuously with an Elvi 840 Aggregometer (Elvi Logos-Milan) to follow its course. The anti-aggregant effects were determined from the difference in the light transmission of the sample with respect to an ADP control.
Table I reports the platelet aggregation inhibition using different doses of the test compounds at a constant ADP concentration.

[2] = tested on: human platelet aggregation (PRP); assay: Human platelet aggregation in vitro induced by ADP, adrenalin, collagen or arachidonate; assay type: cell-based; settings: Homo sapiens
Procedure: Blood samples (20 ml) were obtained by venal puncture of the antecubital fossa using plastic syringes containing trisodium citrate as anticoagulant (final concentration 0.19% w/v). Platelet rich plasma (PRP) was harvested after slow centrifugation at 170 g for 12 min. and 0.2 ml aliquots were dispensed into plastic cuvettes and stored at room temperature throughout the experiment.
Aliquots of 0.2 ml PRP from each sample were treated with ADP, adrenalin, collagen or arachidonate, until the threshold concentrations of these aggregating agents had been reached. The threshold concentration is defined as the minimum whcih will produce irreversible aggregation. Once established, the threshold concentration was used to challenge test samples of each of the 2 test compounds or vehicle (DMSO) which had been incubated for 1 min. at 37 C. in the holding cell of the agregometer, prior to addition of the aggregating agent.
This was reported as the final concentration in the PRP after addition of 2.5-10 ul of test substance.

[3] = tested on: carragenin-induced edema; assay: Carragenin-induced edema test (Winter); assay type: in vivo, rat
Procedure: This effect was measured with an experimental model reproducing acute inflammation in rats: the carragenin-induced edema test according to C.

[4] = tested on: gastric mucosa; assay: Gastric tolerance (ulcerogenic activity); assay type: in vivo, male Wistar rats; settings: 4 days; for Mean Severity: scale 0-5; for Gastric Damage index: vehicle 8
Procedure: This was studied by conducting tests of ulcerogenic activity in male Wistar rats, weighing 180 g on the average, in groups of 10 animals each. Three doses of each substance were given, and one group of animals was treated with vehicle only in a volume of 10 ml/kg bodyweight. Each dose was given orally for four consecutive days; on the fifth day, the rats were killed and autopsied. The ulcerogenic effect was assessed according to the following scale:
(1) each hemorrhage point ≥1 mm was evaluated as 1 lesion
(2) hemorrhage points smaller than 1 mm were counted as follows:
(b) from 1 to 19:2 lesions
(c) from 1 to 29:3 lesions
(2) gastric mucosa irritation: 1
(3) hemorrahge points <1 mm: 2
(4) hemorrhage points between 1 and 3 mm: 3
(5) hemorrhage points >3 mm: 4
This scale was used to calculate the following gastric damage index: [formula]

[5] = in vivo; settings: mouse, mice
[6] = in vivo; settings: rat, rats
[7] = Solubility; assay type: physicochemical; settings: common organic solvents

Which “% Inhibition” value ([1]; ADP 2 μmol/l, dose 1 V/ml (Table II)) does the source give for Cc1ccc(C(=O)c2ccc(CC(=O)OCCn3cnc4c3c(=O)n(C)c(=O)n4C)n2C)cc1 [(A), 1-Methyl-5-p-methylbenzoylpyrrol-2-acetate of 7-(2-oxyethyl)theophylline] here?
Its value is 42%.

And the “% Inhibition” value ([1]; ADP 5 μmol/l, dose 1 V/ml (Table II))?
The value was 30%.

What about the “% Inhibition” value ([1]; ADP 7.08 μmol/l, dose 1 /ml (Table I)) of the same compound?
The value was 25%.

And the “% Inhibition” value ([1]; ADP 7.08 μmol/l, dose 2,5 /ml (Table I))?
The value was 100%.

What about the “% Inhibition” value ([1]; ADP 7.08 μmol/l, dose 5 /ml (Table I)) of the same compound?
The value was 100%.

What about the minimal effective concentration ([2]; ATH-8, 1 min, ADP, volunteer 3, read-out: Minimum Effective Concentration (Final in PRP)) of the same compound?
Its minimal effective concentration is 100 µM.

What about the minimal effective concentration ([2]; ATH-8, 1 min, Adrenalin, volunteer 3, read-out: Minimum Effective Concentration (Final in PRP)) of the same compound?
The minimal effective concentration was 10 µM.

What about the minimal effective concentration ([2]; ATH-8, 1 min, Arachidonate, volunteer 3, read-out: Minimum Effective Concentration (Final in PRP)) of the same compound?
Its minimal effective concentration is 250 µM.

What about the minimal effective concentration ([2]; ATH-8, 1 min, Collagen, volunteer 3, read-out: Minimum Effective Concentration (Final in PRP)) of the same compound?
Its minimal effective concentration is 700 µM.

What about the minimal effective concentration ([2]; Platelet, 1 min, ADP, volunteer 1, read-out: Minimum Effective Concentration (Final in PRP)) of the same compound?
Its minimal effective concentration is 10 µM.

What about the minimal effective concentration ([2]; Platelet, 1 min, ADP, volunteer 2 (donor gamma), read-out: Minimum Effective Concentration (Final in PRP)) of the same compound?
Its minimal effective concentration is 10 µM.

And the minimal effective concentration ([2]; Platelet, 1 min, Adrenalin, range over 3 volunteers, read-out: Minimum Effective Concentration Range)?
The minimal effective concentration was 10 µM.

And the minimal effective concentration ([2]; Platelet, 1 min, Adrenalin, volunteer 1, read-out: Minimum Effective Concentration (Final in PRP))?
Its minimal effective concentration is 10 µM.

And the minimal effective concentration ([2]; Platelet, 1 min, Adrenalin, volunteer 2 (donor gamma), read-out: Minimum Effective Concentration (Final in PRP))?
The minimal effective concentration was 10 µM.

What about the minimal effective concentration ([2]; Platelet, 1 min, Arachidonate, volunteer 1, read-out: Minimum Effective Concentration (Final in PRP)) of the same compound?
The minimal effective concentration was 100 µM.

And the minimal effective concentration ([2]; Platelet, 1 min, Arachidonate, volunteer 2 (donor gamma), read-out: Minimum Effective Concentration (Final in PRP))?
The minimal effective concentration was 10 µM.

And the minimal effective concentration ([2]; Platelet, 1 min, Collagen, volunteer 1, read-out: Minimum Effective Concentration (Final in PRP))?
The minimal effective concentration was 100 µM.

What about the minimal effective concentration ([2]; Platelet, 1 min, Collagen, volunteer 2 (donor gamma), read-out: Minimum Effective Concentration (Final in PRP)) of the same compound?
Its minimal effective concentration is 550 µM.

What about the “% Edema Inhibition” value ([3]; I.P., 10 mg/kg, 3 h) of the same compound?
The value was 35,0%.

What about the “% Edema Inhibition” value ([3]; I.P., 10 mg/kg, 6 h) of the same compound?
The value was 26,0%.

And the “% Edema Inhibition” value ([3]; I.P., 10 mg/kg, 24 h)?
The value was 0,0%.

What about the “% Edema Inhibition” value ([3]; I.P., 50 mg/kg, 3 h) of the same compound?
The value was 54,0%.

And the “% Edema Inhibition” value ([3]; I.P., 50 mg/kg, 6 h)?
Its value is 40,0%.

What about the “% Edema Inhibition” value ([3]; I.P., 50 mg/kg, 24 h) of the same compound?
The value was 0,0%.

What about the “% Edema Inhibition” value ([3]; I.P., 100 mg/kg, 3 h) of the same compound?
Its value is 65,0%.

And the “% Edema Inhibition” value ([3]; I.P., 100 mg/kg, 6 h)?
The value was 56,1%.

And the “% Edema Inhibition” value ([3]; I.P., 100 mg/kg, 24 h)?
Its value is 0,0%.

And the “% Edema Inhibition” value ([3]; OS, 10 mg/kg, 3 h)?
The value was 34,6%.

What about the “% Edema Inhibition” value ([3]; OS, 10 mg/kg, 6 h) of the same compound?
Its value is 22,2%.

What about the “% Edema Inhibition” value ([3]; OS, 10 mg/kg, 24 h) of the same compound?
Its value is 0,0%.

What about the “% Edema Inhibition” value ([3]; OS, 50 mg/kg, 3 h) of the same compound?
Its value is 52,0%.

And the “% Edema Inhibition” value ([3]; OS, 50 mg/kg, 6 h)?
The value was 41,1%.

What about the “% Edema Inhibition” value ([3]; OS, 50 mg/kg, 24 h) of the same compound?
The value was 0,0%.

What about the “% Edema Inhibition” value ([3]; OS, 100 mg/kg, 3 h) of the same compound?
The value was 62,0%.

What about the “% Edema Inhibition” value ([3]; OS, 100 mg/kg, 6 h) of the same compound?
The value was 57,3%.

What about the “% Edema Inhibition” value ([3]; OS, 100 mg/kg, 24 h) of the same compound?
The value was 10,0%.

And the “% incidence 10” value ([4]; 50 mg/kg oral)?
The value was 6 %/10.

What about the “Gastric Damage index, second figure (after +; difference from vehicle)” value ([4]; 50 mg/kg oral) of the same compound?
The value was 1.

What about the “Mean No. lesions” value ([4]; 50 mg/kg oral) of the same compound?
Its value is 1.

What about the “Mean Severity” value ([4]; 50 mg/kg oral) of the same compound?
The value was 2.

And the “Gastric Damage index” value ([4]; 50 mg/kg oral)?
Its value is 9.

And the “% incidence 10” value ([4]; 100 mg/kg oral)?
Its value is 8 %/10.

And the “Gastric Damage index, second figure (after +; difference from vehicle)” value ([4]; 100 mg/kg oral)?
Its value is 4.

What about the “Mean No. lesions” value ([4]; 100 mg/kg oral) of the same compound?
Its value is 2.

What about the “Mean Severity” value ([4]; 100 mg/kg oral) of the same compound?
Its value is 2.

What about the “Gastric Damage index” value ([4]; 100 mg/kg oral) of the same compound?
The value was 12.

And the “% incidence 10” value ([4]; 200 mg/kg oral)?
The value was 8 %/10.

What about the “Gastric Damage index, second figure (after +; difference from vehicle)” value ([4]; 200 mg/kg oral) of the same compound?
The value was 6.

What about the “Mean No. lesions” value ([4]; 200 mg/kg oral) of the same compound?
Its value is 3.

And the “Mean Severity” value ([4]; 200 mg/kg oral)?
Its value is 3.

What about the “Gastric Damage index” value ([4]; 200 mg/kg oral) of the same compound?
Its value is 14.

What about the LD50 ([5]; ip, I.P.) of the same compound?
The LD50 was 950 mg/kg.

What about the LD50 ([5]; po, OS) of the same compound?
Its LD50 is 1270 mg/kg.

What about the LD50 ([6]; ip, I.P.) of the same compound?
Its LD50 is 800 mg/kg.

What about the LD50 ([6]; po, OS) of the same compound?
The LD50 was 1150 mg/kg.

And the Solubility [7]?
The Solubility was “Soluble in common organic solvents”.
